For data set [1], the target named is T1, Protein kinase C iota type (Homo sapiens, UniProt P41743).
T1 sequence (P41743 whole entry): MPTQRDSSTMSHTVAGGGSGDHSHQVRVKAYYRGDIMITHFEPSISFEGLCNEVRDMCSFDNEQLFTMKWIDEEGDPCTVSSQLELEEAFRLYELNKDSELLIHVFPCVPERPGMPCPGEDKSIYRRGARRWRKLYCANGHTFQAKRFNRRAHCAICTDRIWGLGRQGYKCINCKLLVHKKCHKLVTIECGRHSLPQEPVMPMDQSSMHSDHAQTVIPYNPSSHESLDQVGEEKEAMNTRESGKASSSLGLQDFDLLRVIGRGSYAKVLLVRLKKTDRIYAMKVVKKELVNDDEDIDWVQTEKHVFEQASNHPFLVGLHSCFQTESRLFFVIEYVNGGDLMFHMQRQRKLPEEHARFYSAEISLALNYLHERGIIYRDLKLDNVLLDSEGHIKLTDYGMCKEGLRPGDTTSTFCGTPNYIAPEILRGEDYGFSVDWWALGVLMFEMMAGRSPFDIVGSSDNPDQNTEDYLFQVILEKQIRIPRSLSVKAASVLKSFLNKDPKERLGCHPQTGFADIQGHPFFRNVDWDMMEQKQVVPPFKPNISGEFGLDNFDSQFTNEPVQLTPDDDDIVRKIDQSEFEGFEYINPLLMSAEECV
In words: Inhibition of full-length N-terminal GST-fused human PKC-iota expressed in baculovirus expression system using (5FAM) RFARKGSLRQKNV as substrate after 60 mins by caliper assay.

Data set [2] addresses Protein kinase C alpha type (Homo sapiens, UniProt P17252). As to the kind of experiment: Inhibition of full-length N-terminal GST-fused human PKC-alpha expressed in baculovirus expression system using (5FAM) RFARKGSLRQKNV as substrate after 60 mins by caliper assay.
Data set [3] deals with T2, Protein kinase C epsilon type (Homo sapiens, UniProt Q02156).
T2 sequence (Q02156 whole entry): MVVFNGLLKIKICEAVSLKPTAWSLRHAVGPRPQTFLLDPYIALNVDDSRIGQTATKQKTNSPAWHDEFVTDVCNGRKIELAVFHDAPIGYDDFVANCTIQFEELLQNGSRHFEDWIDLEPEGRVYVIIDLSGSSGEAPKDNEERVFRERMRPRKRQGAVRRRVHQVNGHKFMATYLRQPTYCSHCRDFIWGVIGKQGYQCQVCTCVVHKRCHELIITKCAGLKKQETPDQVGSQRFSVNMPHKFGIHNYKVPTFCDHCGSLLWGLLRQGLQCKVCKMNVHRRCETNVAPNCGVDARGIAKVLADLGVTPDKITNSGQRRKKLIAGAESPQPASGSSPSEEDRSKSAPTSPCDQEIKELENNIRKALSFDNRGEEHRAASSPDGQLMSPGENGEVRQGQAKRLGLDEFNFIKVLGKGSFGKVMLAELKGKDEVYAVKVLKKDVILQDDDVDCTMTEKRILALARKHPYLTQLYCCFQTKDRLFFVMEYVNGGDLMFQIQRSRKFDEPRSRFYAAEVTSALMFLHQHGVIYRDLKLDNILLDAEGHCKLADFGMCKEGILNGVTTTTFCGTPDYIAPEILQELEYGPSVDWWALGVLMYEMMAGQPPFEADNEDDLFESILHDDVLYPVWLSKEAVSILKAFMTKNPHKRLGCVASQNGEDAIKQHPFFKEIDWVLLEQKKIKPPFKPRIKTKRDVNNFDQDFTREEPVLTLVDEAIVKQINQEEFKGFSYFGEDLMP
In words: Inhibition of full-length N-terminal GST-fused human PKC-epsilon expressed in baculovirus expression system using (5FAM) RFARKGSLRQKNV as substrate after 60 mins by caliper assay.

The test system of the next data set is Huh-7. In words: Antiproliferative activity against human HuH7 cells after 72 hrs by CellTiter-Glo assay. To be noted: Huh-7, 72 h. In kind it is functional.
Another data set has as its system HCCLM3. In words: Antiproliferative activity against human HCCLM3 cells after 72 hrs by CellTiter-Glo assay. Format: functional. To be noted: HCCLM3, 72 h. Background: Cellular ATP, detected with luciferase, serves as a proxy for viable cell number.
Data set [4] can be described thus: Half life in human liver microsomes. Format: ADME, microsome.
The next data set concerns the target Cytochrome P450 2D6 (Homo sapiens, UniProt P10635). As to the kind of experiment: Inhibition of CYP2D6 (unknown origin). In kind it is ADME.
A short description of data set [5]: Permeability across apical to basolateral side in human Caco2 cells. Format: ADME, cell-based. To be noted: Caco-2, read-out: permeability. (Caco-2 monolayers are a common model of the intestinal barrier.)
Data set [6] can be described thus: Clearance in human liver microsomes. Format: ADME, microsome. To be noted: read-out: CLH.
Data set [7] in a line: Half life in mouse liver microsomes. Format: ADME, microsome.
The nature of data set [8]: Solubility of the compound at pH 7.4. Format: physicochemical. To be noted: buffer.
Data set [9] can be described thus: Clearance in mouse liver microsomes. To be noted: read-out: CLH. Format: ADME, microsome.
Data set [10] is described as follows: Solubility of the compound at pH 4. In kind it is physicochemical. To be noted: buffer.

In brackets after ≈: the same amount, converted by molar mass.

These results are taken from ChEMBL document CHEMBL4184321, “Fragment-Based Drug Discovery of Potent Protein Kinase C Iota Inhibitors” (J Med Chem, 2018).

What is called IC50 is the concentration at which inhibition is half-maximal. A higher IC50 goes with weaker potency in that assay. For orientation: GI50 means the concentration at which growth is held to half of that of the control. The term half-life denotes how long it takes for the measured level to halve. Read a high half-life as slow loss. The solubility is the dissolved amount per volume that the medium holds. A lower solubility goes with a poorly soluble substance.

Cytochrome P450 2D6, sequence (P10635 whole entry): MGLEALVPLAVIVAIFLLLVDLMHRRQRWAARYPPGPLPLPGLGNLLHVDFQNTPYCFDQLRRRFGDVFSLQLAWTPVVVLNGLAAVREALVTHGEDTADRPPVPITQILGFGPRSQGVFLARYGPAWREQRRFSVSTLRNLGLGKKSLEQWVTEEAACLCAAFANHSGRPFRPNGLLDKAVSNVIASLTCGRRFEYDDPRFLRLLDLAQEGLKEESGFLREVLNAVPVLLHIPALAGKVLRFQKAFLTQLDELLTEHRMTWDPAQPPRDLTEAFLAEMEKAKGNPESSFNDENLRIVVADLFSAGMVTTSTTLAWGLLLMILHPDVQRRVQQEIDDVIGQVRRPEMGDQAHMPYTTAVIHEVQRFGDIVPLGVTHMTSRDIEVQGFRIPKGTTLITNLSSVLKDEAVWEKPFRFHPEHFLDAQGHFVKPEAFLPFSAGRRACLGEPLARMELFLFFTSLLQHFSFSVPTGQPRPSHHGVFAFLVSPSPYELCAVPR

`Nc1ccc2[nH]cnc2c1` displayed an IC50 in data set [1] of 728 µM.

`O=C1CCCc2cc(O)ccc21` registered a 50% inhibitory concentration (IC50) in [1] of 1680 µM.

Turning to `COc1cc2c(cc1-c1cnn3ccc(-c4ccnc5[nH]ccc45)cc13)CNCC2`, the IC50 in data set [2] was 71 nM.

Regarding `COc1ccc2c(c1)C(=O)N(c1cnn3ccc(-c4ccnc5[nH]ccc45)cc13)C2`, the IC50 in data set [2] was 2500 nM.

Turning to `Clc1ccnc2[nH]ccc12`, the IC50 in data set [1] is 1300 µM.

The compound `COc1cc2c(cc1-c1cnc3ccc(-c4ccnc5[nH]ccc45)cn13)CNC2` showed a concentration for half-maximal inhibition (IC50) in data set [2] of 340 nM.

Take `COc1cc2c(cc1-c1cnn3ccc(-c4ccnc5[nH]ccc45)cc13)CN(C)C2`: inhibition in data set [2] was half-maximal at 140 nM (IC50).

Regarding `Brc1ccnc2[nH]ccc12`, in data set [1], the IC50 came out at 615 µM.

In data set [2], `COc1cc2c(cc1-n1cnc3cnc(-c4ccnc5[nH]ccc45)cc31)CNC2` had an IC50 of 250 nM. That is a sub-micromolar value.

The compound `COc1cc2c(cc1-c1cnn3ccc(-c4ccnc5[nH]ccc45)cc13)CNC(C)C2` (centres undefined) displayed a concentration for half-maximal inhibition (IC50) in data set [2] of 64 nM.

`COc1cc2c(cc1-c1cnn3ccc(-c4ccnc5[nH]ccc45)nc13)CNC2` yielded an IC50 in data set [2] of 350 nM. This IC50 is about 5.5-fold higher than that of the compound before.

As to `COc1cc2c(cc1-c1cnn3ccc(-c4ccnc5[nH]ccc45)cc13)CNC(CF)C2` (centres undefined), the IC50 came to 45 nM in data set [3], 45 nM in data set [2] and 0.0027 µM in [1]. For the same compound, the values for the 50% growth inhibitory concentration (GI50) in the data set with Huh-7 and in the data set on HCCLM3 were 3.3 µM and 6.6 µM, respectively.

Consider `COc1cc2c(cc1-n1cnc3ccc(-c4ccnc5[nH]ccc45)nc31)CNC2`, for which the IC50 in [2] was determined as 430 nM.

As to `COc1cc2c(cc1-n1cnc3ccc(-c4ccnc5[nH]ccc45)cc31)CNC2`, the results for the half-life in data set [4] and in [7] were 67 min and 32 min, respectively. Besides, the IC50 amounted to 24 µM against Cytochrome P450 2D6, 560 nM in data set [3], 280 nM in [2] and 0.048 µM in [1]. Also, the Papp A→B in [5] was determined as 0.57 ×10⁻⁶ cm/s. The microsomal CLint in [6] came to 10 µL/min/mg; in data set [9], 21.5 µL/min/mg. Also, the GI50 with Huh-7 was found to be 9 µM. Moreover, the values for the solubility in data set [8] and in [10] were 1.3 µg/mL (≈ 3.41 µM) and 790 µg/mL (≈ 2070 µM), respectively.

As to `COc1cc2c(cc1-c1cnc3ccc(-c4ccnc5[nH]ccc45)nn13)CNC2`, the IC50 in data set [2] stood at 1400 nM.

`COc1cc2c(cc1-c1cnn3ccc(-c4ccnc5[nH]ccc45)cc13)CN(C(C)=O)C2` showed an IC50 in [2] of 380 nM.

In data set [1], `Cn1ccc2cc(N)ccc21` gave an IC50 of 1310 µM. That is a millimolar value.

`COc1cc2c(cc1-c1cnn3ccc(-c4ccnc5[nH]ccc45)cc13)CNC2` gave a half-inhibitory concentration (IC50) in data set [2] of 110 nM.

On to `O=c1[nH]ncc2ccccc12` [PHTHALAZINONE], for which, in data set [1], the IC50 was determined as 589 µM.
